Assay: Compound was tested for binding affinity towards Opioid receptor delta 1 in guinea pig brain homogenates using [3H][p-Cl-Phe]-DPDPE as radioligand
`C[C@@H](NC(=O)[C@@H](N)Cc1ccc(O)cc1)C(=O)NCC(=O)N[C@@H](Cc1cccc2ccccc12)C(=O)NNC(=O)[C@H](Cc1cccc2ccccc12)NC(=O)CNC(=O)[C@@H](C)NC(=O)[C@@H](N)Cc1ccc(O)cc1` [Biphalin Analogue] gave a Ki of 6.4 nM. Work on `C[C@@H](NC(=O)[C@@H](N)Cc1ccc(O)cc1)C(=O)NCC(=O)N[C@@H](Cc1ccc2ccccc2c1)C(=O)NNC(=O)[C@H](Cc1ccc2ccccc2c1)NC(=O)CNC(=O)[C@@H](C)NC(=O)[C@@H](N)Cc1ccc(O)cc1` [Biphalin Analogue] yielded a Ki of 7.4 nM. In the case of `C[C@@H](NC(=O)[C@@H](N)Cc1ccc(O)cc1)C(=O)NCC(=O)N[C@@H](Cc1c(F)c(F)c(F)c(F)c1F)C(=O)NNC(=O)[C@H](Cc1c(F)c(F)c(F)c(F)c1F)NC(=O)CNC(=O)[C@@H](C)NC(=O)[C@@H](N)Cc1ccc(O)cc1` [Biphalin Analogue], the Ki is reported as 7.8 nM. Work on `C[C@@H](NC(=O)[C@@H](N)Cc1ccc(O)cc1)C(=O)NCC(=O)N[C@H](C(=O)NNC(=O)[C@@H](NC(=O)CNC(=O)[C@@H](C)NC(=O)[C@@H](N)Cc1ccc(O)cc1)[C@@H](C)c1ccccc1)[C@@H](C)c1ccccc1` [2-Amino-N-((S)-1-{[((S)-1-{N'-[(S)-2-(2-{(S)-2-[2-amino-3-(4-hydroxy-phenyl)-propionylamino]-propionylamino}-acetylamino)-3-phenyl-butyryl]-hydrazinocarbonyl}-2-phenyl-propylcarbamoyl)-methyl]-carbamoyl}-ethyl)-3-(4-hydroxy-phenyl)-propionamide] yielded a Ki of 11 nM. For `C[C@H](c1ccccc1)[C@H](NC(=O)CNC(=O)[C@@H](C)NC(=O)[C@@H](N)Cc1ccc(O)cc1)C(=O)NNC(=O)[C@@H](NC(=O)CNC(=O)[C@@H](C)NC(=O)[C@@H](N)Cc1ccc(O)cc1)[C@H](C)c1ccccc1` [2-Amino-N-((S)-1-{[((R)-1-{N'-[(R)-2-(2-{(S)-2-[2-amino-3-(4-hydroxy-phenyl)-propionylamino]-propionylamino}-acetylamino)-3-phenyl-butyryl]-hydrazinocarbonyl}-2-phenyl-propylcarbamoyl)-methyl]-carbamoyl}-ethyl)-3-(4-hydroxy-phenyl)-propionamide], the Ki was 110 nM.
